Patent US20250382332A1, “NOVEL ALPHA-FACTOR BASED PEPTIDES WITH ANTIFUNGAL ACTIVITY” (INVAIO SCIENCES, INC., priority 2024, published 2025)
Peptide text beside a SMILES is read from it.

System: Botrytis cinerea (B05.10)
Experiment: Resazurin antifungal assay of 180 alpha-factor peptide variants towards Botrytis (Example 2)
Type: cell-based
Settings: % inhibition of fungal growth, Botrytis conidia, resazurin; for Inhibition at 10 μM: peptide 10 μM; for Inhibition at 20 μM: peptide 20 μM; for Inhibition at 50 μM: peptide 50 μM; for Inhibition at 100 μM: peptide 100 μM
Method in brief: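 Resazurin viability read-out (570/620 nm fluorescence) after a 24 h, 20° C incubation of B05.10 conidia, 5000 per well, with peptide at final 10-100 μM. Growth inhibition (%) was derived by subtracting conidia-only fluorescence; four replicates per treatment.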

Row | SMILES | Inhibition at 10 μM [%] | Inhibition at 20 μM [%] | Inhibition at 50 μM [%] | Inhibition at 100 μM [%] | Inhibition at 15 μM (peptide 15 μM) [%]
1 | CSCC[C@H](NC(=O)[C@@H]1CCCN1C(=O)[C@H](CCC(N)=O)NC(=O)CNC(=O)[C@@H](NC(=O)[C@H](CCCCN)NC(=O)[C@H](Cc1ccccc1)NC(=O)[C@H](CCC(N)=O)NC(=O)[C@H](CC(C)C)NC(=O)[C@H](CC(C)C)NC(=O)[C@H](Cc1c[nH]cn1)NC(=O)[C@@H](N)Cc1c[nH]c2ccccc12)C(C)C)C(=O)N[C@@H](Cc1ccc(O)cc1)C(=O)O [compound 25] (H-WHLLQFKVGQPMY-OH; N-terminus and C-terminus assumed) | <90 | <90 | 92.63 | 100 | –
2 | CSCC[C@H](NC(=O)[C@H](CO)NC(=O)[C@H](CCC(N)=O)NC(=O)CNC(=O)[C@H](CCCNC(=N)N)NC(=O)[C@H](Cc1c[nH]c2ccccc12)NC(=O)[C@H](Cc1ccccc1)NC(=O)[C@H](CCC(N)=O)NC(=O)[C@H](CC(C)C)NC(=O)[C@H](Cc1c[nH]c2ccccc12)NC(=O)[C@H](Cc1c[nH]cn1)NC(=O)[C@@H](N)Cc1c[nH]c2ccccc12)C(=O)N[C@@H](Cc1ccc(O)cc1)C(=O)O [compound 1] (H-WHWLQFWRGQSMY-OH; N-terminus and C-terminus assumed) | <90 | <90 | 100 | 100 | –
3 | CSCC[C@H](NC(=O)CNC(=O)[C@H](CCC(N)=O)NC(=O)CNC(=O)[C@@H](NC(=O)[C@H](CCCCN)NC(=O)[C@H](Cc1ccccc1)NC(=O)[C@@H](NC(=O)[C@H](CC(C)C)NC(=O)[C@H](Cc1c[nH]c2ccccc12)NC(=O)[C@H](Cc1c[nH]cn1)NC(=O)[C@@H](N)Cc1c[nH]c2ccccc12)[C@@H](C)O)[C@@H](C)O)C(=O)N[C@@H](Cc1ccc(O)cc1)C(=O)O [compound 16] (H-WHWLTFKTGQGMY-OH; N-terminus and C-terminus assumed) | <90 | <90 | 100 | 100 | –
4 | CSCC[C@H](NC(=O)[C@H](CO)NC(=O)[C@H](CCC(N)=O)NC(=O)CNC(=O)[C@@H]1CCCN1C(=O)[C@H](CCCCN)NC(=O)[C@H](Cc1ccccc1)NC(=O)[C@H](CCC(N)=O)NC(=O)[C@H](CC(C)C)NC(=O)CNC(=O)[C@@H](NC(=O)[C@@H]1CCCN1)[C@@H](C)O)C(=O)N[C@@H](Cc1ccc(O)cc1)C(=O)O [compound 45] (H-PTGLQFKPGQSMY-OH; N-terminus and C-terminus assumed) | – | – | <90 | <90 | –
5 | CC[C@H](C)[C@H](NC(=O)[C@H](CC(C)C)NC(=O)[C@H](CCC(N)=O)NC(=O)CNC(=O)[C@H](Cc1c[nH]c2ccccc12)NC(=O)CNC(=O)[C@@H](N)CCCCN)C(=O)N1CCC[C@H]1C(=O)NCC(=O)N[C@@H](CCC(=O)O)C(=O)N1CCC[C@H]1C(=O)N[C@@H](CCSC)C(=O)N[C@@H](Cc1ccc(O)cc1)C(=O)O [compound 133] (H-KGWGQLIPGEPMY-OH; N-terminus and C-terminus assumed) | – | – | <90 | <90 | –
6 | CSCC[C@H](NC(=O)[C@H](Cc1c[nH]cn1)NC(=O)[C@@H](N)Cc1c[nH]c2ccccc12)C(=O)N[C@H](C(=O)N[C@@H](CCC(N)=O)C(=O)N[C@@H](CC(C)C)C(=O)N[C@@H](CCCCN)C(=O)N1CCC[C@H]1C(=O)NCC(=O)N[C@@H](CCC(=O)O)C(=O)N1CCC[C@H]1C(=O)N[C@@H](CCSC)C(=O)N[C@@H](Cc1ccc(O)cc1)C(=O)O)C(C)C [compound 163] (H-WHMVQLKPGEPMY-OH; N-terminus and C-terminus assumed) | – | – | <90 | <90 | –
7 | CSCC[C@H](NC(=O)[C@@H]1CCCN1C(=O)[C@H](CCC(N)=O)NC(=O)CNC(=O)[C@@H]1CCCN1C(=O)[C@H](CCCCN)NC(=O)[C@H](Cc1ccccc1)NC(=O)[C@H](CCCCN)NC(=O)[C@H](CC(C)C)NC(=O)[C@@H](NC(=O)[C@H](Cc1c[nH]cn1)NC(=O)[C@@H](N)CCCCN)C(C)C)C(=O)N[C@@H](Cc1ccc(O)cc1)C(=O)O [compound 87] (H-KHVLKFKPGQPMY-OH; N-terminus and C-terminus assumed) | <90 | 98.89 | 100 | 100 | <90
8 | CSCC[C@H](NC(=O)[C@@H]1CCCN1C(=O)[C@H](CCC(N)=O)NC(=O)CNC(=O)[C@@H]1CCCN1C(=O)[C@H](CCCCN)NC(=O)[C@H](CC(C)C)NC(=O)[C@H](CCCCN)NC(=O)[C@H](CC(C)C)NC(=O)[C@H](CC(=O)O)NC(=O)CNC(=O)[C@@H](N)Cc1c[nH]c2ccccc12)C(=O)N[C@@H](Cc1ccc(O)cc1)C(=O)O [compound 134] (H-WGDLKLKPGQPMY-OH; N-terminus and C-terminus assumed) | – | – | <90 | <90 | –
9 | CC[C@H](C)[C@H](NC(=O)[C@H](Cc1c[nH]c2ccccc12)NC(=O)[C@H](CCCCN)NC(=O)[C@@H](N)CCCCN)C(=O)N[C@@H](CCC(N)=O)C(=O)N[C@@H](CC(C)C)C(=O)N[C@@H](CCCCN)C(=O)N1CCC[C@H]1C(=O)NCC(=O)N[C@@H](CCC(=O)O)C(=O)N1CCC[C@H]1C(=O)N[C@@H](CCSC)C(=O)N[C@@H](Cc1ccc(O)cc1)C(=O)O [compound 175] (H-KKWIQLKPGEPMY-OH; N-terminus and C-terminus assumed) | – | – | <90 | <90 | –
10 | CC[C@H](C)[C@H](NC(=O)[C@H](CCC(N)=O)NC(=O)CNC(=O)[C@H](CCSC)NC(=O)[C@H](CO)NC(=O)[C@@H](N)Cc1c[nH]c2ccccc12)C(=O)N[C@@H](CCCCN)C(=O)N1CCC[C@H]1C(=O)NCC(=O)N[C@@H](CO)C(=O)N1CCC[C@H]1C(=O)N[C@@H](CCSC)C(=O)N[C@@H](Cc1ccc(O)cc1)C(=O)O [compound 120] (H-WSMGQIKPGSPMY-OH; N-terminus and C-terminus assumed) | – | – | <90 | <90 | –
11 | CSCC[C@H](NC(=O)[C@H](CC(C)C)NC(=O)[C@H](CCC(N)=O)NC(=O)[C@@H](NC(=O)[C@H](Cc1c[nH]c2ccccc12)NC(=O)[C@H](Cc1c[nH]cn1)NC(=O)[C@@H](N)CCCCN)C(C)C)C(=O)N[C@@H](CCCCN)C(=O)NCC(=O)N[C@@H](CCC(N)=O)C(=O)N1CCC[C@H]1C(=O)N[C@@H](CCSC)C(=O)N[C@@H](Cc1ccc(O)cc1)C(=O)O [compound 21] (H-KHWVQLMKGQPMY-OH; N-terminus and C-terminus assumed) | <90 | <90 | 100 | 100 | –
12 | CSCC[C@H](NC(=O)[C@@H]1CCCN1C(=O)[C@H](CCC(N)=O)NC(=O)CNC(=O)[C@@H](NC(=O)[C@H](CCCNC(=N)N)NC(=O)[C@H](CC(C)C)NC(=O)[C@H](CC(N)=O)NC(=O)[C@@H](NC(=O)[C@H](Cc1c[nH]c2ccccc12)NC(=O)[C@H](CCCCN)NC(=O)[C@@H](N)Cc1c[nH]c2ccccc12)C(C)C)[C@@H](C)O)C(=O)N[C@@H](Cc1ccc(O)cc1)C(=O)O [compound 65] (H-WKWVNLRTGQPMY-OH; N-terminus and C-terminus assumed) | <90 | <90 | 100 | 100 | –
13 | CSCC[C@H](NC(=O)[C@@H]1CCCN1C(=O)[C@H](CCC(N)=O)NC(=O)CNC(=O)[C@@H]1CCCN1C(=O)[C@H](CCCCN)NC(=O)[C@H](CC(C)C)NC(=O)[C@H](CCC(=O)O)NC(=O)[C@H](CC(C)C)NC(=O)[C@H](Cc1ccc(O)cc1)NC(=O)[C@H](Cc1c[nH]cn1)NC(=O)[C@@H](N)CCCCN)C(=O)N[C@@H](Cc1ccc(O)cc1)C(=O)O [compound 162] (H-KHYLELKPGQPMY-OH; N-terminus and C-terminus assumed) | – | – | <90 | <90 | –
14 | CC[C@H](C)[C@H](NC(=O)[C@H](Cc1c[nH]c2ccccc12)NC(=O)[C@H](Cc1c[nH]cn1)NC(=O)[C@@H](N)Cc1c[nH]c2ccccc12)C(=O)N[C@@H](CCC(N)=O)C(=O)N[C@@H](Cc1ccccc1)C(=O)N[C@@H](CCCCN)C(=O)N1CCC[C@H]1C(=O)NCC(=O)N[C@@H](CCC(N)=O)C(=O)N[C@@H](CO)C(=O)N[C@@H](CCSC)C(=O)N[C@@H](Cc1ccc(O)cc1)C(=O)O [compound 26] (H-WHWIQFKPGQSMY-OH; N-terminus and C-terminus assumed) | <90 | <90 | 91.39 | 100 | –
15 | CSCC[C@H](NC(=O)CNC(=O)[C@H](CCC(N)=O)NC(=O)CNC(=O)[C@H](Cc1ccc(O)cc1)NC(=O)[C@H](CCCCN)NC(=O)[C@H](CC(C)C)NC(=O)[C@H](CCC(N)=O)NC(=O)[C@@H](NC(=O)[C@H](Cc1c[nH]c2ccccc12)NC(=O)[C@H](CCC(N)=O)NC(=O)[C@@H](N)CCCCN)C(C)C)C(=O)N[C@@H](Cc1ccc(O)cc1)C(=O)O [compound 123] (H-KQWVQLKYGQGMY-OH; N-terminus and C-terminus assumed) | – | – | <90 | 100 | –
16 | CSCC[C@H](NC(=O)[C@@H]1CCCN1C(=O)[C@H](CCC(=O)O)NC(=O)CNC(=O)[C@@H](NC(=O)CNC(=O)[C@H](CC(C)C)NC(=O)[C@H](CCCCN)NC(=O)[C@H](CC(C)C)NC(=O)[C@H](Cc1c[nH]c2ccccc12)NC(=O)[C@H](Cc1c[nH]cn1)NC(=O)[C@@H](N)Cc1c[nH]c2ccccc12)[C@@H](C)O)C(=O)N[C@@H](Cc1ccc(O)cc1)C(=O)O [compound 119] (H-WHWLKLGTGEPMY-OH; N-terminus and C-terminus assumed) | – | – | <90 | 98.65 | –
